Experimental data reported in US20220323596A1, “ANTIBODY CONJUGATES OF TOLL-LIKE RECEPTOR AGONISTS” (SILVERBACK THERAPEUTICS, INC., priority 2018, published 2022).

biological target: T1, TLR7 (Mus musculus, UniProt P58681); experiment: In vitro TLR7 small molecule screening: murine TNFα production by bone marrow-derived murine macrophages; type: cell-based; conditions: murine TNFα by ELISA after overnight culture; 1000 to 0.06 nM; non-linear regression
T1 construct: endogenous in cells; host or cells: Balb/c mouse bone marrow-derived macrophages, differentiated with M-CSF
T1 sequence (P58681 27-1050): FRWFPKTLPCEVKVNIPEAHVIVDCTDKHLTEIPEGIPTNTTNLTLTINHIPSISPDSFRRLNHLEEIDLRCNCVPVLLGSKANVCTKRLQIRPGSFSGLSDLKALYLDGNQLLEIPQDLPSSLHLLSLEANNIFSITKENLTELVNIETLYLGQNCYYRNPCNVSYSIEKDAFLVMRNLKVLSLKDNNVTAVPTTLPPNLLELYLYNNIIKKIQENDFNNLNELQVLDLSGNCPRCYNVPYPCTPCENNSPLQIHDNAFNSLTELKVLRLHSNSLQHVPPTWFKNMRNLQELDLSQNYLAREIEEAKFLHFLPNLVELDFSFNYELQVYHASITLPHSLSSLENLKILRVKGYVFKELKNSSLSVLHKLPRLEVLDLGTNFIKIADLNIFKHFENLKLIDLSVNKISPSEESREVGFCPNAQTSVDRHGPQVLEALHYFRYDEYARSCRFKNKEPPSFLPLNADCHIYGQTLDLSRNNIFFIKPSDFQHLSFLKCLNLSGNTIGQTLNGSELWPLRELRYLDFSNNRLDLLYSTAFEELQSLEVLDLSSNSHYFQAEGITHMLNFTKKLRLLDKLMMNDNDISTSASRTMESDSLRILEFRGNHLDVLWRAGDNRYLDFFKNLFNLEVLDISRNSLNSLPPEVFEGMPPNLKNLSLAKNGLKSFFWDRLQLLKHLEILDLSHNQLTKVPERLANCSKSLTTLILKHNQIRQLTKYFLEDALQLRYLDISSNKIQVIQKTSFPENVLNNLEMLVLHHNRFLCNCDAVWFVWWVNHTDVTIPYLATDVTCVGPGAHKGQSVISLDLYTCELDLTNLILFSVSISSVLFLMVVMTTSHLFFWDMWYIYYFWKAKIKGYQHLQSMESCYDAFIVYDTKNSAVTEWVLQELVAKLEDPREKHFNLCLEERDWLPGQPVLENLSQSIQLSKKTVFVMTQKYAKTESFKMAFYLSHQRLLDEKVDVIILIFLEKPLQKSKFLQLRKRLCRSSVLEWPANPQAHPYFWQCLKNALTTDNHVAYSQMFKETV
Procedure: Murine macrophages were derived from bone marrow cells from a Balb/c mouse. Briefly, murine bone marrow cells were isolated and resuspended in cDMEM media (high glucose DMEM (HyClone) supplemented with 10% fetal bovine serum (HyClone), 1 mM Sodium Pyruvate (HyClone), 2 mM L-glutamine (Gibco), 10 mM HEPES (HyClone), 1×NEAA (Gibco), 50 U/mL penicillin, 50 U/mL streptomycin (HyClone)) and seeded at 5e5 cells/mL in the presence of 20 ng/mL murine M-CSF (Peprotech) and incubated at 37° C., 5% CO2 for 7 days to differentiate into murine macrophages.
After differentiation, bone marrow-derived murine macrophages were plated in 96-well flat bottom microtiter plates (80,000/well) along with titrating concentrations of TLR7 small molecules ranging from 1000 to 0.06 nM in cRPMI media (RPMI-1640 (HyClone) supplemented with 10% fetal bovine serum (HyClone), 1 mM Sodium Pyruvate (HyClone), 2 mM L-glutamine (Gibco), 10 mM HEPES (HyClone), 1×NEAA (Gibco), 50 U/mL penicillin, 50 U/mL streptomycin (HyClone)). After overnight culture, supernatants were harvested and murine TNFα levels were determined by ELISA (BioLegend). Table 4. […] Data was analyzed using GraphPad Prism 7.01 software (GraphPad Software) and EC50 values calculated using non-linear regression. The TLR7 small molecules were active, stimulating production of murine TNFα in a dose-dependent manner from the murine macrophages. Compound A is represented by the formula: […]

Question: `CCOCc1nc2c(NC(=O)[C@H](CCCNC(N)=O)NC(=O)[C@@H](N)C(C)C)nc3ccccc3c2n1CC(C)(C)OCCNC(=O)OC(C)(C)C` [Compound 1.5, tert-butyl (2-((1-(4-((S)-2-((S)-2-amino-3-methylbutanamido)-5-ureidopentanamido)-2-(ethoxymethyl)-1H-imidazo[4,5-c]quinolin-1-yl)-2-methylpropan-2-yl)oxy)ethyl)carbamate] was tested. Which EC50 did it give?
Answer: 0.004 µM

Question: `CCOCc1nc2c(NC(=O)[C@H](C)N)nc3ccccc3c2n1CC(C)(C)OCCNC(=O)C(C)(C)NC(=O)OCc1ccccc1` [Compound 1.6, benzyl (S)-(1-((2-((1-(4-(2-aminopropanamido)-2-(ethoxymethyl)-1H-imidazo[4,5-c]quinolin-1-yl)-2-methylpropan-2-yl)oxy)ethyl)amino)-2-methyl-1-oxopropan-2-yl)carbamate] was tested. Which EC50 did it give?
Answer: 0.657 µM

Question: With `CCOCc1nc2c(N)nc3ccccc3c2n1CC(C)(C)OCCN` [Compound A, reference compound] as the molecule, how does the EC50 read?
Answer: 0.073 µM

Question: For `CCOCc1nc2c(NC(=O)[C@H](C)NC(=O)C3CCCN3C(=O)OC(C)(C)C)nc3ccccc3c2n1CC(C)(C)OCCNC(=O)C(C)(C)NC(=O)OCc1ccccc1` (stereo partly drawn) [Compound 1.7, tert-butyl 2-(((S)-1-((2-(ethoxymethyl)-1-(5,5,11,11-tetramethyl-3,6-dioxo-1-phenyl-2,10-dioxa-4,7-diazadodecan-12-yl)-1H-imidazo[4,5-c]quinolin-4-yl)amino)-1-oxopropan-2-yl)carbamoyl)pyrrolidine-1-carboxylate], which EC50 is on record?
Answer: 0.503 µM

Question: How did the EC50 turn out when `CCOCc1nc2c(NC(=O)[C@H](CCCNC(N)=O)NC(=O)[C@@H](NC(=O)OCC3c4ccccc4-c4ccccc43)C(C)C)nc3ccccc3c2n1CC(C)(C)OCCNC(=O)OC(C)(C)C` [Compound 1.8, (9H-fluoren-9-yl)methyl ((S)-1-(((S)-1-((1-(2-(2-((tert-butoxycarbonyl)amino)ethoxy)-2-methylpropyl)-2-(ethoxymethyl)-1H-imidazo[4,5-c]quinolin-4-yl)amino)-1-oxo-5-ureidopentan-2-yl)amino)-3-methyl-1-oxobutan-2-yl)carbamate] was run?
Answer: 0.059 µM

Question: Which EC50 does the source give for `CCOCc1nc2c(NC(=O)[C@H](C)NC(=O)OC(C)(C)C)nc3ccccc3c2n1CC(C)(C)OCCNC(=O)C(C)(C)NC(=O)OCc1ccccc1` [Compound 1.3, benzyl (S)-(1-((2-((1-(4-(2-((tert-butoxycarbonyl)amino)propanamido)-2-(ethoxymethyl)-1H-imidazo[4,5-c]quinolin-1-yl)-2-methylpropan-2-yl)oxy)ethyl)amino)-2-methyl-1-oxopropan-2-yl)carbamate] here?
Answer: 1.68 µM

Question: Which EC50 does the source give for `CCOCc1nc2c(N)nc3ccccc3c2n1CC(C)(C)OCCNC(=O)C(C)(C)NC(=O)OCc1ccccc1` [Compound 1.1, benzyl (1-((2-((1-(4-amino-2-(ethoxymethyl)-1H-imidazo[4,5-c]quinolin-1-yl)-2-methylpropan-2-yl)oxy)ethyl)amino)-2-methyl-1-oxopropan-2-yl)carbamate] here?
Answer: 0.02 µM

Question: How did the EC50 turn out when `CCOCc1nc2c(N)nc3ccccc3c2n1CC(C)(C)OCCNC(=O)OC(C)(C)C` [Compound 1.4, tert-butyl (2-((1-(4-amino-2-(ethoxymethyl)-1H-imidazo[4,5-c]quinolin-1-yl)-2-methylpropan-2-yl)oxy)ethyl)carbamate] was run?
Answer: 0.0012 µM

tested on: BMDM with SK-BR-3 (HER2pos); experiment: mTNFα from mouse bone marrow derived macrophages co-cultured with SK-BR-3 (HER2pos) cells; type: cell-based; conditions: 24 hours co-culture with HER2pos SK-BR-3
Procedure: (§1) The ability of an anti-HER2-TLR7 conjugate to specifically activate mouse macrophages when bound to tumor cells by HER2 was assessed in vitro as follows. Bone marrow cells were harvested from BALB/cJ mouse femurs and tibias using a 27-gauge needle attached to a 3 mL syringe filled with growth media (DMEM supplemented with 10% Fetal Bovine Serum, 1 mM Sodium Pyruvate, 1× GlutaMAX-1, 1× Non-Essential Amino Acids, 10 mM HEPES and 0.5% Penicillin/Streptomycin). Bone marrow cells were centrifuged, and RBC lysed before being counted and resuspended at a concentration 5×10^5/mL in growth media. Ten mL of cell suspension was placed in 10 cm dishes and 20 ng/mL murine macrophage-colony-stimulating factor (mM-CSF) was added. Cells were incubated for two days, media replaced with fresh growth media containing 20 ng/mL mM-CSF, and then cultured for a further four days. BMDM and tumor cell lines SK-BR-3 (HER2pos) or MDA-MB-468 (HER2neg) were removed from plates with Accutase cell detachment solution and counted. […] Murine TNFα (mTNFα) levels in the supernatant were determined by mTNFα ELISA Kit (BioLegend) and read on an Envision Plate Reader (Perkin Elmer, Waltham, Mass.) according to manufactures instructions. mTNFα levels were then graphed using GraphPad Prism 7.01 software (GraphPad Software, San Diego, Calif.) and EC50 values generated using non-linear regression curve fit.

Question: Which “activation of mouse bone marrow cells (mTNFα)” value does the source give for `CCOCc1nc2c(N)nc3ccccc3c2n1CC(C)(C)OCCNC(=O)C(C)(C)N` [Compound 1.2, 2-amino-N-(2-((1-(4-amino-2-(ethoxymethyl)-1H-imidazo[4,5-c]quinolin-1-yl)-2-methylpropan-2-yl)oxy)ethyl)-2-methylpropanamide] here?
Answer: potently activating

tested on: BMDM with MDA-MB-468 (HER2neg); experiment: mTNFα from mouse bone marrow derived macrophages co-cultured with MDA-MB-468 (HER2neg) cells; type: cell-based; conditions: 24 hours co-culture with HER2neg MDA-MB-468
Procedure: as §1

Question: `CCOCc1nc2c(N)nc3ccccc3c2n1CC(C)(C)OCCNC(=O)C(C)(C)N` [Compound 1.2, 2-amino-N-(2-((1-(4-amino-2-(ethoxymethyl)-1H-imidazo[4,5-c]quinolin-1-yl)-2-methylpropan-2-yl)oxy)ethyl)-2-methylpropanamide] was tested. Which “activation of mouse bone marrow cells (mTNFα)” value did it give?
Answer: potently activating
